Results on 29 molecules are retold here after patent US20250059179A1, “Heterocyclic Compounds and Methods of Use” (AMGEN INC., priority 2021, published 2025).

GDP-bound KRAS protein (aa 1-169), containing both G12D and C118A amino acid substitutions, sequence (P01116 1-169 isoform P01116-2 G12D/C118A): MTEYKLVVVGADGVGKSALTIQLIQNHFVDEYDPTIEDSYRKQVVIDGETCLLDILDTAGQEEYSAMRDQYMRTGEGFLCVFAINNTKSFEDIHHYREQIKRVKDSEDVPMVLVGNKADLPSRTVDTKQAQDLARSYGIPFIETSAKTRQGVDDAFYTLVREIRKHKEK

One test addresses GDP-bound KRAS protein (aa 1-169), containing both G12D and C118A amino acid substitutions (Homo sapiens, UniProt P01116, C118A/G12D). The test is described as follows: KRAS G12D Coupled Nucleotide Exchange Assay.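 Note: IC50 obtained by fitting the AlphaScreen signal with a four-parameter logistic curve.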 In kind it is biochemical. To be noted: 2 h compound pre-incubation; SOS-mediated nucleotide exchange, cRAF AlphaScreen readout. In general terms: In Alpha technology, singlet oxygen from a donor bead excites a nearby acceptor bead.
For the molecule `CNC1CCN(c2nc(N3CCNCC3)c3cc(Cl)c(-c4cccc5sc(N)nc45)c(F)c3n2)C1` (centres unmarked) [Example 97, 4-[6-chloro-8-fluoro-4-piperazin-1-yl-2-[3-(methylamino)pyrrolidin-1-yl]quinazolin-7-yl]-1,3-benzothiazol-2-amine], the “Avg 2 h Coupled Exchange IC50” value is 1.27 µM. Same read-out and setting: the figure for `Nc1nc2c(-c3c(Cl)cc4c(N5CCNCC5)nc(N[C@H]5CCc6ncsc6C5)nc4c3F)cccc2s1` [Example 110, 4-[6-chloro-8-fluoro-4-piperazin-1-yl-2-[[(6S)-4,5,6,7-tetrahydro-1,3-benzothiazol-6-yl]amino]quinazolin-7-yl]-1,3-benzothiazol-2-amine] is 2.18 µM. Same read-out and setting: under `Nc1nc2c(-c3c(Cl)cc4c(N5CCNCC5)nc(N5CCCC(c6nccs6)C5)nc4c3F)cccc2s1` (centres unmarked) [Example 121, 4-[6-chloro-8-fluoro-4-piperazin-1-yl-2-[3-thiazol-2-yl-1-piperidyl]quinazolin-7-yl]-1,3-benzothiazol-2-amine] stands 3.95 µM; under `CC1(C)CN(C2CN(c3nc(N4CCNCC4)c4cc(Cl)c(-c5cccc6sc(N)nc56)c(F)c4n3)C2)CCO1` [Example 117, 4-[6-chloro-2-[3-(2,2-dimethylmorpholin-4-yl)azetidin-1-yl]-8-fluoro-4-piperazin-1-yl-quinazolin-7-yl]-1,3-benzothiazol-2-amine], 3.32 µM; under `CN(C1CN(c2nc(N3CCNCC3)c3cc(Cl)c(-c4cccc5sc(N)nc45)c(F)c3n2)C1)[C@@H]1CCOC1` [Example 89], 0.895 µM. Still for that read-out and setting: under `CC1(O)CN(C2CN(c3nc(N4CCNCC4)c4cc(Cl)c(-c5cccc6sc(N)nc56)c(F)c4n3)C2)C1` [Example 86, 1-[1-[7-(2-amino-1,3-benzothiazol-4-yl)-6-chloro-8-fluoro-4-piperazin-1-yl-quinazolin-2-yl]azetidin-3-yl]-3-methyl-azetidin-3-ol] stands 0.648 µM; under `CN(C)C1CCN(c2nc(N3CCNCC3)c3cc(Cl)c(-c4cccc5sc(N)nc45)c(F)c3n2)C1` (centres unmarked) [Example 94, 4-[6-chloro-8-fluoro-4-piperazin-1-yl-2-[3-(dimethylamino)pyrrolidin-1-yl]quinazolin-7-yl]-1,3-benzothiazol-2-amine], 1.14 µM; under `Nc1nc2c(-c3c(Cl)cc4c(N5CCNCC5)nc(N5CC6(CC(O)c7nccn76)C5)nc4c3F)cccc2s1` (centres unmarked) [Example 108, 1′-[7-(2-amino-1,3-benzothiazol-4-yl)-6-chloro-8-fluoro-4-piperazin-1-yl-quinazolin-2-yl]spiro[6,7-dihydropyrrolo[1,2-a]imidazole-5,3′-azetidine]-7-ol], 1.97 µM.

For the molecule `CN(C1COC1)C1CN(c2nc(N3CCNCC3)c3cc(Cl)c(-c4cccc5sc(N)nc45)c(F)c3n2)C1` [Example 100, 4-[6-chloro-8-fluoro-2-[3-[methyl(oxetan-3-yl)amino]azetidin-1-yl]-4-piperazin-1-yl-quinazolin-7-yl]-1,3-benzothiazol-2-amine], the “Avg 2 h Coupled Exchange IC50” value stood at 1.5 µM.

Regarding `CON(C)C1CN(c2nc(N3CCNCC3)c3cc(Cl)c(-c4cccc5sc(N)nc45)c(F)c3n2)C1` [Example 104, 4-[6-chloro-8-fluoro-2-[3-[methoxy(methyl)amino]azetidin-1-yl]-4-piperazin-1-yl-quinazolin-7-yl]-1,3-benzothiazol-2-amine], the “Avg 2 h Coupled Exchange IC50” value came out at 1.73 µM. Same read-out and setting: the figure for `Nc1nc2c(-c3c(Cl)cc4c(N5CCNCC5)nc(N5CC(N)C5)nc4c3F)cccc2s1` [Example 96, 4-[2-(3-aminoazetidin-1-yl)-6-chloro-8-fluoro-4-piperazin-1-yl-quinazolin-7-yl]-1,3-benzothiazol-2-amine] is 1.251 µM. Same read-out and setting: the figure for `Nc1nc2c(-c3c(Cl)cc4c(N5CCNCC5)nc(N5CC(N6CCCC(O)C6)C5)nc4c3F)cccc2s1` (centres unmarked) [Example 92, 1-[1-[7-(2-amino-1,3-benzothiazol-4-yl)-6-chloro-8-fluoro-4-piperazin-1-yl-quinazolin-2-yl]azetidin-3-yl]piperidin-3-ol] is 1.02 µM; for `CNC1CN(c2nc(N3CCNCC3)c3cc(Cl)c(-c4cccc5sc(N)nc45)c(F)c3n2)C1` [Example 91, 4-[6-chloro-8-fluoro-2-[3-(methylamino)azetidin-1-yl]-4-piperazin-1-yl-quinazolin-7-yl]-1,3-benzothiazol-2-amine] it is 1.013 µM; for `Nc1nc2c(-c3c(Cl)cc4c(N5CCNCC5)nc(NCC(O)c5cncs5)nc4c3F)cccc2s1` (centres unmarked) [Example 106, 2-[[7-(2-amino-1,3-benzothiazol-4-yl)-6-chloro-8-fluoro-4-piperazin-1-yl-quinazolin-2-yl]amino]-1-thiazol-5-yl-ethanol] it is 1.9 µM.

Turning to `Nc1nc2c(-c3c(Cl)cc4c(N5CCNCC5)nc(N5CC(N6CCCCC6)C5)nc4c3F)cccc2s1` [Example 78, 4-[6-chloro-8-fluoro-4-piperazin-1-yl-2-[3-(1-piperidyl)azetidin-1-yl]quinazolin-7-yl]-1,3-benzothiazol-2-amine], the “Avg 2 h Coupled Exchange IC50” value worked out at 0.28 µM. `Nc1nc2c(-c3c(Cl)cc4c(N5CCNCC5)nc(N5CC6(CCNC6)C5)nc4c3F)cccc2s1` [Example 120, 4-[6-chloro-2-(2,7-diazaspiro[3.4]octan-2-yl)-8-fluoro-4-piperazin-1-yl-quinazolin-7-yl]-1,3-benzothiazol-2-amine]: the “Avg 2 h Coupled Exchange IC50” value is 3.9 µM. As to `CNC1(C)CN(c2nc(N3CCNCC3)c3cc(Cl)c(-c4cccc5sc(N)nc45)c(F)c3n2)C1` [Example 77, 4-[6-chloro-8-fluoro-2-[3-methyl-3-(methylamino)azetidin-1-yl]-4-piperazin-1-yl-quinazolin-7-yl]-1,3-benzothiazol-2-amine], the “Avg 2 h Coupled Exchange IC50” value came out at 0.201 µM. On the same count and under the same terms, under `Nc1nc2c(-c3c(Cl)cc4c(N5CCNCC5)nc(N5CC(n6ccnc6)C5)nc4c3F)cccc2s1` [Example 116, 4-[6-chloro-8-fluoro-2-(3-imidazol-1-ylazetidin-1-yl)-4-piperazin-1-yl-quinazolin-7-yl]-1,3-benzothiazol-2-amine] stands 3.11 µM; under `Nc1nc2c(-c3c(Cl)cc4c(N5CCNCC5)nc(N5CC(N6CC(F)C6)C5)nc4c3F)cccc2s1` [Example 90, 4-[6-chloro-8-fluoro-2-[3-(3-fluoroazetidin-1-yl)azetidin-1-yl]-4-piperazin-1-yl-quinazolin-7-yl]-1,3-benzothiazol-2-amine], 1.01 µM.

In the case of `CN1C(=O)CC2(CN(c3nc(N4CCNCC4)c4cc(Cl)c(-c5cccc6sc(N)nc56)c(F)c4n3)C2)n2ccnc21` [Example 113, 1′-[7-(2-amino-1,3-benzothiazol-4-yl)-6-chloro-8-fluoro-4-piperazin-1-yl-quinazolin-2-yl]-8-methyl-spiro[6H-imidazo[1,2-a]pyrimidine-5,3′-azetidine]-7-one], the “Avg 2 h Coupled Exchange IC50” value amounted to 2.48 µM. With `CN1CCC[C@H]1COc1nc(N2C3CCC2C(=O)NC3)c2cc(Cl)c(-c3cccc4sc(N)nc34)c(F)c2n1` (stereo partly drawn) [Example 82, 8-(7-(2-aminobenzo[d]thiazol-4-yl)-6-chloro-8-fluoro-2-(((S)-1-methylpyrrolidin-2-yl)methoxy)quinazolin-4-yl)-3,8-diazabicyclo[3.2.1]octan-2-one], the “Avg 2 h Coupled Exchange IC50” value came to 0.471 µM.

Regarding `CCOC(=O)c1ccn(C2CN(c3nc(N4CCNCC4)c4cc(Cl)c(-c5cccc6sc(N)nc56)c(F)c4n3)C2)n1` [Example 119, ethyl 1-[1-[7-(2-amino-1,3-benzothiazol-4-yl)-6-chloro-8-fluoro-4-piperazin-1-yl-quinazolin-2-yl]azetidin-3-yl]pyrazole-3-carboxylate], the “Avg 2 h Coupled Exchange IC50” value turned out to be 3.67 µM. The same measure, in the same setting: under `CCC1(N)CN(c2nc(N3CCNCC3)c3cc(Cl)c(-c4cccc5sc(N)nc45)c(F)c3n2)C1` [Example 81, 4-[2-(3-amino-3-ethyl-azetidin-1-yl)-6-chloro-8-fluoro-4-piperazin-1-yl-quinazolin-7-yl]-1,3-benzothiazol-2-amine] stands 0.437 µM; under `CCN1CCN(C2CN(c3nc(N4CCNCC4)c4cc(Cl)c(-c5cccc6sc(N)nc56)c(F)c4n3)C2)CC1` [Example 112, 4-[6-chloro-2-[3-(4-ethylpiperazin-1-yl)azetidin-1-yl]-8-fluoro-4-piperazin-1-yl-quinazolin-7-yl]-1,3-benzothiazol-2-amine], 2.46 µM. As to `C[C@@H]1[C@@H](N)CN1c1nc(N2CCNCC2)c2cc(Cl)c(-c3cccc4sc(N)nc34)c(F)c2n1` [Example 80, 4-[2-[(2R,3S)-3-amino-2-methyl-azetidin-1-yl]-6-chloro-8-fluoro-4-piperazin-1-yl-quinazolin-7-yl]-1,3-benzothiazol-2-amine], the “Avg 2 h Coupled Exchange IC50” value was determined as 0.377 µM.

Consider `Nc1nc2c(-c3c(Cl)cc4c(N5CCNCC5)nc(N5CC(N6CCS(=O)(=O)CC6)C5)nc4c3F)cccc2s1` [Example 111, 4-[6-chloro-2-[3-(1,1-dioxo-1,4-thiazinan-4-yl)azetidin-1-yl]-8-fluoro-4-piperazin-1-yl-quinazolin-7-yl]-1,3-benzothiazol-2-amine], for which the “Avg 2 h Coupled Exchange IC50” value was determined as 2.3 µM. As to `Nc1nc2c(-c3c(Cl)cc4c(N5CCNCC5)nc(N5CCC6(CCN6)C5)nc4c3F)cccc2s1` (centres unmarked) [Example 109, 4-[6-chloro-8-fluoro-4-piperazin-1-yl-2-[1,7-diazaspiro[3.4]octan-7-yl]quinazolin-7-yl]-1,3-benzothiazol-2-amine], the “Avg 2 h Coupled Exchange IC50” value worked out at 2.17 µM. Same read-out and setting: the figure for `CC1(N)CN(c2nc(N3CCNCC3)c3cc(Cl)c(-c4cccc5sc(N)nc45)c(F)c3n2)C1` [Example 79, 4-[2-(3-amino-3-methyl-azetidin-1-yl)-6-chloro-8-fluoro-4-piperazin-1-yl-quinazolin-7-yl]-1,3-benzothiazol-2-amine] is 0.359 µM.

Still in this test, the particulars now being: read-out: Avg 2 h Coupled Exchange IC50; 2 h compound pre-incubation; SOS-mediated nucleotide exchange, cRAF AlphaScreen readout.
For `CN(C)C1(C)CN(c2nc(N3CCNCC3)c3cc(Cl)c(-c4cccc5sc(N)nc45)c(F)c3n2)C1` [Example 76], the 50% inhibitory concentration (IC50) (as a rule, the midpoint of a concentration-inhibition curve) amounted to 172 nM.
